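At the GI50, growth is halved. TGI marks complete inhibition of growth.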
Assays:
Assay in all cases: inhibition of tumour cell growth, NCI panel, 384-well format
A498 renal = tested on: A498 renal
A549 NSCLC = tested on: A549 NSCLC
ACHN renal = tested on: ACHN renal
BT-549 breast = tested on: BT-549 breast
CAKI-1 renal = tested on: CAKI-1 renal
COLO 205 colon = tested on: COLO 205 colon
DU-145 prostate = tested on: DU-145 prostate
EKVX NSCLC = tested on: EKVX NSCLC
HCC-2998 colon = tested on: HCC-2998 colon
HCT-116 colon = tested on: HCT-116 colon
HCT-15 colon = tested on: HCT-15 colon
HL-60(TB) leukemia = tested on: HL-60(TB) leukemia
HOP-62 NSCLC = tested on: HOP-62 NSCLC
HOP-92 NSCLC = tested on: HOP-92 NSCLC
HS 578T breast = tested on: HS 578T breast
HT29 colon = tested on: HT29 colon
IGROV1 ovarian = tested on: IGROV1 ovarian
KM12 colon = tested on: KM12 colon
LOX IMVI melanoma = tested on: LOX IMVI melanoma
M14 melanoma = tested on: M14 melanoma
MALME-3M melanoma = tested on: MALME-3M melanoma
MCF7 breast = tested on: MCF7 breast
MDA-MB-231 breast = tested on: MDA-MB-231 breast
MDA-MB-435 melanoma = tested on: MDA-MB-435 melanoma
MDA-MB-468 breast = tested on: MDA-MB-468 breast
MOLT-4 leukemia = tested on: MOLT-4 leukemia
NCI-H226 lung = tested on: NCI-H226 lung
NCI-H23 lung = tested on: NCI-H23 lung
NCI-H322M lung = tested on: NCI-H322M lung
NCI-H460 NSCLC = tested on: NCI-H460 NSCLC
NCI-H522 lung = tested on: NCI-H522 lung
NCI/ADR-RES ovarian = tested on: NCI/ADR-RES ovarian
OVCAR-3 ovarian = tested on: OVCAR-3 ovarian
OVCAR-4 ovarian = tested on: OVCAR-4 ovarian
OVCAR-5 ovarian = tested on: OVCAR-5 ovarian
OVCAR-8 ovarian = tested on: OVCAR-8 ovarian
PC-3 prostate = tested on: PC-3 prostate
RPMI-8226 leukemia = tested on: RPMI-8226 leukemia
RXF 393 renal = tested on: RXF 393 renal
SF-268 CNS = tested on: SF-268 CNS
SF-295 CNS = tested on: SF-295 CNS
SF-539 CNS = tested on: SF-539 CNS
SK-MEL-28 melanoma = tested on: SK-MEL-28 melanoma
SK-MEL-5 melanoma = tested on: SK-MEL-5 melanoma
SK-OV-3 ovarian = tested on: SK-OV-3 ovarian
SN12C renal = tested on: SN12C renal
SNB-19 CNS = tested on: SNB-19 CNS
SNB-75 CNS = tested on: SNB-75 CNS
SR leukemia = tested on: SR leukemia
T-47D breast = tested on: T-47D breast
TK-10 renal = tested on: TK-10 renal
U251 glioblastoma = tested on: U251 glioblastoma
UACC-257 melanoma = tested on: UACC-257 melanoma
UACC-62 melanoma = tested on: UACC-62 melanoma

Cc1ccc(F)c(NC(=O)Nc2ccc(-c3cccc4[nH]nc(N)c34)cc2)c1
GI50 (A498 renal): 2.03 µM
TGI (A498 renal): 4.58 µM
GI50 (A549 NSCLC): 3.14 µM
TGI (A549 NSCLC): 9.44 µM
GI50 (ACHN renal): 2.13 µM
TGI (ACHN renal): 5.05 µM
GI50 (BT-549 breast): 1.99 µM
TGI (BT-549 breast): 3.79 µM
GI50 (CAKI-1 renal): 2.84 µM
TGI (CAKI-1 renal): 7.73 µM
GI50 (COLO 205 colon): 1.93 µM
TGI (COLO 205 colon): 4.29 µM
GI50 (DU-145 prostate): 1.73 µM
TGI (DU-145 prostate): 3.55 µM
GI50 (EKVX NSCLC): 2.13 µM
TGI (EKVX NSCLC): 4.53 µM
GI50 (HCC-2998 colon): 1.27 µM
TGI (HCC-2998 colon): 2.65 µM
GI50 (HCT-116 colon): 1.99 µM
TGI (HCT-116 colon): 4.6 µM
GI50 (HCT-15 colon): 1.82 µM
TGI (HCT-15 colon): 4.3 µM
GI50 (HL-60(TB) leukemia): 1.27 µM
TGI (HL-60(TB) leukemia): 2.54 µM
GI50 (HOP-62 NSCLC): 1.94 µM
TGI (HOP-62 NSCLC): 5.5 µM
GI50 (HOP-92 NSCLC): 3.96 µM
TGI (HOP-92 NSCLC): 12.6 µM
GI50 (HS 578T breast): 2.19 µM
TGI (HS 578T breast): 5.31 µM
GI50 (HT29 colon): 1.77 µM
TGI (HT29 colon): 4.58 µM
GI50 (IGROV1 ovarian): 1.78 µM
TGI (IGROV1 ovarian): 3.79 µM
GI50 (KM12 colon): 0.432 µM
TGI (KM12 colon): 3.87 µM
GI50 (LOX IMVI melanoma): 1.85 µM
TGI (LOX IMVI melanoma): 3.32 µM
GI50 (M14 melanoma): 1.96 µM
TGI (M14 melanoma): 4.86 µM
GI50 (MALME-3M melanoma): 1.93 µM
TGI (MALME-3M melanoma): 4.24 µM
GI50 (MCF7 breast): 1.08 µM
TGI (MCF7 breast): 4.28 µM
GI50 (MDA-MB-231 breast): 3.83 µM
TGI (MDA-MB-231 breast): 15.2 µM
GI50 (MDA-MB-435 melanoma): 2.16 µM
TGI (MDA-MB-435 melanoma): 4.25 µM
GI50 (MDA-MB-468 breast): 1.8 µM
TGI (MDA-MB-468 breast): 3.69 µM
GI50 (MOLT-4 leukemia): 1.91 µM
TGI (MOLT-4 leukemia): 3.35 µM
GI50 (NCI-H226 lung): 2.44 µM
TGI (NCI-H226 lung): 9.13 µM
GI50 (NCI-H23 lung): 1.71 µM
TGI (NCI-H23 lung): 3.4 µM
GI50 (NCI-H322M lung): 2.15 µM
TGI (NCI-H322M lung): 5.5 µM
GI50 (NCI-H460 NSCLC): 1.61 µM
TGI (NCI-H460 NSCLC): 3.02 µM
GI50 (NCI-H522 lung): 2.05 µM
TGI (NCI-H522 lung): 3.54 µM
GI50 (NCI/ADR-RES ovarian): 2.43 µM
TGI (NCI/ADR-RES ovarian): 9.01 µM
GI50 (OVCAR-3 ovarian): 1.75 µM
TGI (OVCAR-3 ovarian): 3.25 µM
GI50 (OVCAR-4 ovarian): 1.6 µM
TGI (OVCAR-4 ovarian): 3.98 µM
GI50 (OVCAR-5 ovarian): 1.82 µM
TGI (OVCAR-5 ovarian): 3.89 µM
GI50 (OVCAR-8 ovarian): 2.01 µM
TGI (OVCAR-8 ovarian): 9.04 µM
GI50 (PC-3 prostate): 2.31 µM
TGI (PC-3 prostate): 4.82 µM
GI50 (RPMI-8226 leukemia): 1.76 µM
TGI (RPMI-8226 leukemia): 3.16 µM
GI50 (RXF 393 renal): 1.56 µM
TGI (RXF 393 renal): 3.59 µM
GI50 (SF-268 CNS): 2.3 µM
TGI (SF-268 CNS): 7.63 µM
GI50 (SF-295 CNS): 3.17 µM
TGI (SF-295 CNS): 10.5 µM
GI50 (SF-539 CNS): 1.44 µM
TGI (SF-539 CNS): 3.49 µM
GI50 (SK-MEL-28 melanoma): 4.44 µM
TGI (SK-MEL-28 melanoma): 15.6 µM
GI50 (SK-MEL-5 melanoma): 1.34 µM
TGI (SK-MEL-5 melanoma): 2.67 µM
GI50 (SK-OV-3 ovarian): 2.42 µM
TGI (SK-OV-3 ovarian): 11.6 µM
GI50 (SN12C renal): 1.26 µM
TGI (SN12C renal): 2.89 µM
GI50 (SNB-19 CNS): 3.26 µM
TGI (SNB-19 CNS): 8.97 µM
GI50 (SNB-75 CNS): 2.67 µM
TGI (SNB-75 CNS): 9.2 µM
GI50 (SR leukemia): 1.49 µM
TGI (SR leukemia): 2.82 µM
GI50 (T-47D breast): 2.85 µM
TGI (T-47D breast): 14.2 µM
GI50 (TK-10 renal): 2.07 µM
TGI (TK-10 renal): 5.48 µM
GI50 (U251 glioblastoma): 2.27 µM
TGI (U251 glioblastoma): 4.83 µM
GI50 (UACC-257 melanoma): 1.83 µM
TGI (UACC-257 melanoma): 3.95 µM
GI50 (UACC-62 melanoma): 2.31 µM
TGI (UACC-62 melanoma): 5.7 µM

Reference: PubChem BioAssay (NCI)
